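Tested at 5 concentrations; 48 h exposure; 96-well plates; endpoints linearly interpolated, else capped at highest concentration. Abbreviation: GI50, concentration required for 50% inhibition of growth. Definition used: TGI = concentration required for complete inhibition of growth.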
Assays:
Test in all cases: DTP human tumour cell line panel, 48 h
COLO 205 colon = tested on: COLO 205 colon
HL-60(TB) leukemia = tested on: HL-60(TB) leukemia
HOP-92 NSCLC = tested on: HOP-92 NSCLC
HT29 colon = tested on: HT29 colon
LOX IMVI melanoma = tested on: LOX IMVI melanoma
NCI-H226 lung = tested on: NCI-H226 lung
UACC-257 melanoma = tested on: UACC-257 melanoma
UACC-62 melanoma = tested on: UACC-62 melanoma
EKVX NSCLC = tested on: EKVX NSCLC
M14 melanoma = tested on: M14 melanoma

SMILES	TGI (COLO 205 colon) [µM]	TGI (HL-60(TB) leukemia) [µM]	TGI (HOP-92 NSCLC) [µM]	TGI (HT29 colon) [µM]	TGI (LOX IMVI melanoma) [µM]	TGI (NCI-H226 lung) [µM]	TGI (UACC-257 melanoma) [µM]	TGI (UACC-62 melanoma) [µM]	TGI (EKVX NSCLC) [µM]	GI50 (HL-60(TB) leukemia) [µM]	TGI (M14 melanoma) [µM]	GI50 (COLO 205 colon) [µM]	GI50 (EKVX NSCLC) [µM]	GI50 (HOP-92 NSCLC) [µM]	GI50 (HT29 colon) [µM]	GI50 (LOX IMVI melanoma) [µM]	GI50 (NCI-H226 lung) [µM]	GI50 (UACC-257 melanoma) [µM]	GI50 (UACC-62 melanoma) [µM]	GI50 (M14 melanoma) [µM]
CCS(=O)(=O)Nc1ccc(Nc2c3ccccc3nc3ccccc23)c(OC)c1	7.28	0.13	5.35	6.56	4.26	3.19	16.9	4.02												
N=c1c2c(C(N)=O)cn(C3OC(CO)C(O)C3O)c2ncn1O (stereo unspecified)	1.23	0.659	> 100	9.64	0.438	1.57	0.901	0.283	6.67	0.191	0.506									
Cc1cccc2nc3c(C(=O)NCCN(C)C)cccc3cc12	2.62	3.37	3.99	4.54	4.76	4.65	3.44	3.38	7.06											
CCSCCC(N)C(=O)O (stereo unspecified)	> 100	> 100	> 100	> 100	> 100	> 100	> 100	> 100	> 100		> 100									
Cc1nc(N)nc(N)c1-c1ccc(Cl)c(Cl)c1	> 67.5	> 88.1	79.7	> 100	> 100	> 100	> 100	> 51.1	> 100		> 100									
COC(=O)C1=CC2CCCC1(O)C(C(C)=O)C2 (stereo unspecified)	> 100	47.8	> 100	> 100	34.3	> 100	> 100	> 100	> 86.6		> 100									
CCOC(=O)C1(C(=O)OCC)Nc2cccnc2N(C)N1	24.2	58	29.7	32.2	52.6	35.3	32.3	35.2			39.1									
O=S(=O)(O)c1ccc2cccc(N=Nc3c(O)ccc4ccccc34)c2c1	> 100	> 100	> 100			> 100	> 100	> 100	> 100		> 100									
COc1ccc(/C(=C2/O[C@@H]([C@H]3COC(C)(C)O3)[C@H]3OC(C)(C)O[C@@H]23)c2cc(OC)c(OC)c(OC)c2)cc1O	63.7	56.8	38.3	52	22.8	> 100	> 100	57.6	> 100	6.48		27.3	37.4	4	26.5	5.93	64.7	39.4	22.9	
CC1CNc2ccccc2N=C1NN (stereo unspecified)	> 100	> 24.8		> 100	> 100	> 100	> 100	> 100	> 100		> 100									
CC1SC(c2ccccc2)N(CCc2cccs2)C1=O (stereo unspecified)	10.8	8.67	5.59	15.2	13.7	26.4	14.5	18.8	12.7	2.85		3.2	2.77	1.27	4.03	2.9	6.15	4.73	3.42	
COc1ccc(/C=C2\C(=O)N(C3OC(COC(C)=O)C(OC(C)=O)C(OC(C)=O)C3OC(C)=O)c3ccccc3N=C2N)cc1 (stereo unspecified)	34	41.9	> 100	38	89.4		72.5	45.8	> 100		71.8									
CCOC(=O)c1nc2ccc(Cl)cc2c2c1Cc1ccccc1-2	> 100				> 100	> 100	> 100	> 100	> 100		> 100									
O=C(N/N=C(/c1ccccc1)C(F)(F)F)c1ccncc1	> 100	> 100	> 100	> 100		> 100		> 100			> 100									
CN1CC[C@@]2(c3cccc(O)c3)CC(=O)/C(=C/c3ccccc3)[C@H]1C2	30.3	7.73	31	13.5	3.46	42.5	30.8		28.7		30.4									
CCN(CC)CC(C)Nc1ccc([N+](=O)[O-])c2sc3ccccc3c(=O)c12 (stereo unspecified)	3.35	11.7		> 33.2	2.39	3.72	4.15	2.52	23.4	2.82	4.03	0.941	2.79	1.39	2.58	1.02	1.09	1.68	1.09	1.68
COc1ccc2nc(N/N=C/C(C)=N/Nc3cc(C)c4cc(OC)ccc4n3)cc(C)c2c1	57.9	40.6	> 89.9	28.7	54.8	53.3	> 86.6	64.6	40.2		80.2									

From PubChem BioAssay (NCI)
